The supplement of paper PMC10307832

Legend:
Experiment in all cases: relative viability (nuclei count vs DMSO), 5 days (fraction); higher = more cells survive
[1] = compound: CC(C)CCN1c2nc(Nc3cc(F)c(O)c(F)c3)ncc2N(C)C(=O)C1C [BI-D1870] + CS(=O)(=O)N1CCN(Cc2cc3nc(-c4cccc5[nH]ncc45)nc(N4CCOCC4)c3s2)CC1 [Pictilisib] (partner 1 µM)
Summary of the method: (§1)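 The day after seeding in 1536-well plates, lung cancer cell lines were treated by pin tool with a single drug, or with a fixed anchor-drug dose together with five library-drug doses (not always all listed) in √10 steps. After 5 days, a combined fix-and-stain solution (final 0.05% Triton X-100, 1% formaldehyde, 1 ug/ml Hoechst) was added. Nuclei counted on 4× images gave relative viability as treated counts over vehicle counts, reported as the median of duplicate plates.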

[2] = compound: CC(C)CCN1c2nc(Nc3cc(F)c(O)c(F)c3)ncc2N(C)C(=O)C1C [BI-D1870] + C[C@@H](Oc1cc(-c2cnn(C3CCNCC3)c2)cnc1N)c1c(Cl)ccc(F)c1Cl [Crizotinib] (partner 1 µM)
Summary of the method: as §1

[3] = compound: O=c1ncccn1[C@@H]1O[C@H](CO)[C@@H](O)[C@H]1O [Zebularine] + CC(=O)Nc1cccc(-n2c(=O)n(C3CC3)c(=O)c3c(Nc4ccc(I)cc4F)n(C)c(=O)c(C)c32)c1 [Trametinib] (partner 0.02 µM)
Summary of the method: as §1

[4] = compound: O=c1ncccn1[C@@H]1O[C@H](CO)[C@@H](O)[C@H]1O [Zebularine] + CC(C)C[C@H](NC(=O)[C@H](Cc1ccccc1)NC(=O)c1cnccn1)B(O)O [Bortezomib] (partner 0.002 µM)
Summary of the method: as §1

With UMC-11 the relative viability ([1]; first compound 0.04 µM) was 0.908, the relative viability ([1]; first compound 0.1265 µM) was 0.608 and the relative viability ([1]; first compound 0.4 µM) was 0.759. The relative viability ([1]; first compound 1.265 µM) was 0.733, the relative viability ([1]; first compound 4 µM) was 0.316 and the relative viability ([2]; first compound 0.04 µM) was 0.477. The relative viability ([2]; first compound 0.1265 µM) was 0.585, the relative viability ([2]; first compound 0.4 µM) was 0.533 and the relative viability ([2]; first compound 1.265 µM) was 0.694. For the same cell line, the relative viability ([2]; first compound 4 µM) was 0.172, the relative viability ([3]; first compound 1 µM) was 0.709 and the relative viability ([3]; first compound 3.162 µM) was 0.754. It also gave a relative viability ([3]; first compound 10 µM) of 0.422, a relative viability ([3]; first compound 31.62 µM) of 0.644 and a relative viability ([3]; first compound 100 µM) of 0.376. For the same cell line, the relative viability ([4]; first compound 1 µM) was 0.728, the relative viability ([4]; first compound 3.162 µM) was 0.844 and the relative viability ([4]; first compound 10 µM) was 0.45. It also gave a relative viability ([4]; first compound 31.62 µM) of 0.538 and a relative viability ([4]; first compound 100 µM) of 0.297.
